In patent US20220098547A1, “HYDROGEL BIOMIMETIC FOR INVASIVE DISEASES” (priority 2018, published 2022):

Columns and labels:
VEGF-A = conditions: some glioblastoma patients; cited from earlier work
TSC2+/− LAM-SMCs [1] = assay: Cell invasion into 3D HA hydrogels, LAM-SMCs; type: cell-based, human; conditions: for invasion, selectivity towards LAM-SMCs vs control SMCs: 80 kinase inhibitor screen, 5 μM, 384-well 3D hydrogel
Description: (§1) HA (230 kDa) was functionalized with furfurylamine as previously described^[16] Furanyl-modified HA/MMPx-(maleimide)2 hydrogels were prepared as previously described ^[16] with the following modifications: To prepare 1.0 mL of 0.9% HA hydrogel with 25 μM vitronectin peptide for SMC culture, HA-furanyl (65% furanyl substitution, 9.0 mg HA, 13.3 μmol furanyl) was dissolved in 450 μL of dPBS (adjusted to pH 6.5), and added to 357.7 μL of dPBS (pH 6.5). 150.1 μL of maleimide2-MMP-degradable crosslinker peptide dissolved in 0.1 M MES buffer (pH 5.5, 50 mg/mL, 2.8 μmol of peptide, 5.6 μmol of maleimide) and 3.75 μL of maleimide-vitronectin peptide dissolved in 0.1 M MES buffer (pH 5.5, 12 mg/mL, 25 nmol) were added to the HA-furanyl solution and carefully mixed to prevent the formation of air bubbles. 38.5 μL of a thiolated methyl cellulose solution (2.6 mg/mL MC-SH in DI H2O, 100 nmolfree thiols/mgMC) was then added to this solution and mixed carefully with a pipette. Hydrogel formulations were tuned for lung cancer cells. For culturing primary cells from lung cancer tissue biopsies, 100 μM vitronectin peptides were used. For NCI-H1299, NCI-H446 and human bronchial epithelial cells, 100 μM vitronectin peptides and 100 μM fibronectin peptides were used. To prepare gels in 384-well plates, 15 μL of the hydrogel solutions were added to each well in a 384-well plate and placed in the incubator overnight at 37° C.
(§2) Excess sterile water was then added to wells lining the outside of the plates to prevent hydrogel evaporation. […] Gels were then equilibrated with either RPMI-1640 containing 1% FBS (for lung cancer cells) or M231 SMC media (75 μL, >45 mins). Media was then removed, and for SMC culture, 15 μL of M231 supplemented with 25% SMGS (containing a final FBS concentration of 1%) was added into each well for at least 1 h prior to cell seeding. For drug treatment assays, this 15 μL volume of M231 with 25% SMGS also includes a 5× concentration of the desired drug. For larger drug screening assays, Y-27632 (Rock inhibitor, 10 μM) was used as a negative control for cell invasion, and verteporfin (1 μM) was used as a positive control for cell toxicity (SyTox Green staining). For lung cancer cell culture, cells in RPMI media containing 1% FBS was added to each well.
(§3) SMCs were cultured according to reported protocols.^[12a] In brief, cells were cultured in M231 media with Smooth Muscle Growth Supplement (SMGS) and gentamycin (ThermoFisher Scientific) at 37° C. with 5% CO2. Cells were passaged using 0.05% trypsin/EDTA for 3 min at 37° C., and inhibited using M231 media. 3000 cells in 45 μL of M231 without SMGS were added to each well of a 384-well plate containing 3D HA hydrogels.
(§4) After 5 days of culture in 3D HA gels, 30 μL media was carefully removed. To each well, 20 μL of a solution containing SyTox Green (1/50,000) in PBS was added and incubated for 1.5 h at 37° C. Gels were then carefully washed with PBS twice. Cells were then fixed with 4% PFA for 1.5 h in the dark at room temperature. PFA was removed and gels were washed with PBS. A solution of Hoechst (1/1000, 20 μL) was then added to each well for at least 1.5 h in the dark, followed by washing with PBS (3 times). To label the gel surface, fluorescent microspheres (100 nm, orange, Phosphorex) were diluted in PBS (1/100) and centrifuged to separate larger, aggregated microspheres. 20 μL of the resulting supernatant were then added to each well and the 384-well plate was left undisturbed overnight. For drug screening experiments involving treatment with 80 drugs simultaneously, silica gel particles (40-63 μm, 230-400 mesh, SiliCycle) were used to label the […]. A slurry solution (5 mg/mL) of silica gel particles in PBS containing 0.01% sodium azide was mixed and immediately added to each well. Particles settled after 20 seconds and plates could be immediately imaged.
(§5) Z-stacked images were obtained using a Cellomics high content imaging instrument as described above. […]

TSC2+/− LAM-SMCs [2] = assay: Cell viability (SyTox Green), LAM-SMCs; type: cell-based, human; conditions: for cell viability, selectivity towards LAM-SMCs vs control SMCs: 80 kinase inhibitor screen, 5 μM, 384-well 3D hydrogel
Description: as §1, §2, §3, §4, §5

MMP9 = assay: Gelatin zymography of conditioned media (MMP9 secretion), LAM-SMCs; type: cell-based, human; conditions: Y-27632 treatment (10 μM per FIG. 8 legend)
Description: After 1 day of culture, conditioned media from 384-well plates was collected from each well for gelatin zymography. 8% polyacrylamide (PA) gels were used, and were prepared as previously described^[22] In general, the separating gel component of the zymography gels comprised 7.5 mL of 1.5 M Tris buffer (pH 8.8), 8.0 mL polyacrylamide solution (30%), 10.2 mL gelatin A (3 mg/mL), 2.7 mL water, 300 μL SDS, 300 μL 10% ammonium persulfate, and 36 μL TEMED. The separating gel was allowed to gel for 40 min at room temperature. The stacking gel was then prepared by mixing 5.0 mL of 0.5 M Tris buffer (pH 6.8), 2.6 mL polyacrylamide solution (30%), 12.2 mL water, 200 μL SDS, 150 μL 10% ammonium persulfate, and 30 μL TEMED. The stacking gel was poured on top of each gel and allowed to sit for 40 mins.
For each sample, 12 μL of conditioned media was mixed with 3 μL loading dye, and 12 μL was loaded into each lane. Running buffer comprising 25 mM Tris, 190 mM glycine and 0.1% SDS was used for gel electrophoresis. Following protein separation on the PA gels, gels were washed in 2.5% Triton X (3 times, 10 min each) to remove residual SDS, followed by DI water (5 times, 30 min each). Gels were then placed in an incubation buffer (50 mM Tris buffer pH 7.5 containing 5 mM CaCl2, 200 mM NaCl) and incubated at 37° C. overnight. […]

TSC2+/+ control SMCs = assay: Cell invasion into 3D HA hydrogels, control SMCs; type: cell-based, human; conditions: Y-27632 treatment (10 μM per FIG. 8 legend)
Description: as §1, with “To prepare gels in 384-well plates, 15 μL of the hydrogel solutions were added to each well in a 384-well plate and placed in the incubator overnight at 37° C.” left out

Chain of VEGF-A (P15692 207-311 limits assumed): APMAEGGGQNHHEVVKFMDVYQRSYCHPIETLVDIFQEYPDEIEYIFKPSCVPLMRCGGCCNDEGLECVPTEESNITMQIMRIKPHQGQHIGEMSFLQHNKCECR

| Compound | invasion, selectivity towards LAM-SMCs vs control SMCs (TSC2+/− LAM-SMCs [1]) | cell viability, selectivity towards LAM-SMCs vs control SMCs (TSC2+/− LAM-SMCs [2]) | also measured |
| --- | --- | --- | --- |
| bevacizumab | – | – | tumor metastasis (VEGF-A): increased tumor metastasis; tumor size (VEGF-A): decreased tumor sizes |
| TC-A 2317 NCI | selective decrease | selective decrease | – |
| Cc1cc(Nc2cc(N3CCN(C)CC3)nc(/C=C/c3ccccc3)n2)n[nH]1 [ENMD-2076] | selective decrease | selective decrease | – |
| CN1CCC(c2c(O)cc(O)c3c(=O)cc(-c4ccccc4Cl)oc23)C1CO (single isomer, unassigned; (+)) [(+)-P276] | selective decrease | selective decrease | – |
| Cc1ncc(-c2ccnc(Nc3ccc(S(C)(=O)=O)cc3)n2)n1C(C)C [AZD5438] | selective decrease | selective decrease | – |
| C[C@@H](N)[C@H]1CC[C@H](C(=O)Nc2ccncc2)CC1 [Y-27632] | – | – | cell invasion (TSC2+/− LAM-SMCs [1]; Y-27632 treatment (10 μM per FIG. 8 legend), LAM-SMCs): significantly decreased cell invasion; cell viability (TSC2+/− LAM-SMCs [2]; Y-27632 treatment (10 μM per FIG. 8 legend), LAM-SMCs, 3D HA gels): neither cell viability nor MMP9 secretion levels of LAM-SMCs were affected; MMP9 secretion levels (MMP9): neither cell viability nor MMP9 secretion levels of LAM-SMCs were affected; cell invasion (TSC2+/+ control SMCs): significantly decreased cell invasion |
| CC(C)CC(=O)Nc1[nH]nc2c1CN(C(=O)C1CCN(C)CC1)C2(C)C [PHA-793887] | selective decrease | selective decrease | – |
| CNC(=O)[C@H](Cc1c[nH]c2ccccc12)NC(=O)[C@@H](CC(=O)NO)CC(C)C [GM6001] | – | – | cell invasion (TSC2+/− LAM-SMCs [1]; 10 μM, invasive LAM-SMCs, 3D hydrogels): modest, yet statistically significant decrease in cell invasion |
| Nc1nc(Nc2ccc(S(N)(=O)=O)cc2)nn1C(=S)Nc1c(F)cccc1F [Cdk1/2 inhibitor] | selective decrease | selective decrease | – |
